Here are results for eleven compounds from patent US20250179103A1, “6-OXODECAHYDROPYRROLO[1,2-A][1,5]DIAZOCINE AND 6-OXODECAHYDRO-4H-PYRROLO[2,1-D][1,5]THIAZOCINE DERIVATIVES AS STAT3 AND STAT6 MODULATORS FOR THE TREATMENT OF CANCER AND INFLAMMATORY CONDITIONS” (Recludix Pharma, Inc., priority 2022, published 2025).

The test system of experiment [1] is pY641-STAT6 in Peripheral Blood Mononuclear Cells (PBMC). Nature of the experiment: MSD-pSTAT-PBMC Assay (pSTAT6, IL-4 stimulated). It counts as cell-based, Human. The settings on record: Homo sapiens, compound 3 hrs, then 1 ng/mL IL-4 for 10 min. The procedure, abridged: (§1)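 Human PBMCs were preincubated 3 h with compound, then stimulated 10 min with 10 ng/mL IL-6 (pY705-STAT3) or 1 ng/mL IL-4 (pY641-STAT6). Lysates were read by MSD sandwich immunoassay, capturing total STAT and detecting phospho-STAT. Signal was unstimulated-subtracted and DMSO-normalised, with variable-slope IC50 binned A–D.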

The test system of experiment [2] is pY705-STAT3 in Peripheral Blood Mononuclear Cells (PBMC). Nature of the experiment: MSD-pSTAT-PBMC Assay (pSTAT3, IL-6 stimulated). It is filed as cell-based, Human. The settings on record: Homo sapiens, compound 3 hrs, then 10 ng/mL IL-6 for 10 min. The procedure, abridged:
as §1

SMILES strings stand for the structures.

`CC(=O)N1CC[C@H]2CC[C@@H](C(=O)N(C)c3ccc(C(C)(C)C)cc3)N2C(=O)[C@@H](NC(=O)c2cc3cc(C(F)(F)P(=O)(OCOC(=O)C(C)(C)C)OCOC(=O)C(C)(C)C)ccc3s2)C1` [Compound 319, ((((2-(((5S,8S, 10aR)-3-acetyl-8-((4-(tert-butyl)phenyl) (methyl)carbamoyl)-6-oxodecahydro-pyrrolo[1,2-a][1,5]diazocin-5-yl)carbamoyl)benzo[b]thiophen-5-yl)difluoro-methyl)phos-phoryl)bis(oxy)) bis(methylene) bis(2,2-dimethylpro-panoate)]: the IC50 (as a rule, the concentration needed to halve the response being measured) is at most 0.1 µM in experiment [1] and 0.1 to 1 µM in experiment [2].

In the case of `CC(=O)N1CC[C@H]2CC[C@@H](C(=O)N3CCC[C@H]3Cc3ccccc3)N2C(=O)[C@@H](NC(=O)c2cc3cc(C(F)(F)P(=O)(OCOC(=O)C(C)(C)C)OCOC(=O)C(C)(C)C)ccc3s2)C1` [Compound 320, ((((2-(((5S,8S, 10aR)-3-acetyl-8-((S)-2-benzyl-pyrrolidine-1-carbonyl)-6-oxodecahydro-pyrrolo[1,2-a][1,5]diazocin-5-yl)carbamoyl)benzo[b]thiophen-5-yl)difluoro-methyl)phos-phoryl)bis(oxy)) bis(methylene) bis(2,2-dimethylpro-panoate)], the IC50 was at most 0.1 µM in experiment [1] and 0.1 to 1 µM in experiment [2].

As for `CC(=O)N1CC[C@H]2CC[C@@H](C(=O)N(C)c3ccccc3)N2C(=O)[C@@H](NC(=O)c2ccc3ccc(C(F)(F)P(=O)(OCOC(=O)C(C)(C)C)OCOC(=O)C(C)(C)C)cc3c2)C1` [Compound 321, ((((7-(((5S,8S, 10aR)-3-acetyl-8-(methyl (phenyl)carbamoyl)-6-oxodecahydro-pyrrolo[1,2-a][1,5]diazocin-5-yl)carbamoyl)naphthalen-2-yl)difluoro-methyl)phos-phoryl)bis(oxy)) bis(methylene) bis(2,2-dimethylpro-panoate)], the IC50 in experiment [1] was at most 0.1 µM; in experiment [2], 0.1 to 1 µM.

On to `CC(=O)N1CC[C@H]2CC[C@@H](C(=O)N(C)c3ccccc3)N2C(=O)[C@@H](NC(=O)c2ccc3cc(C(F)(F)P(=O)(OCOC(=O)C(C)(C)C)OCOC(=O)C(C)(C)C)ccc3c2)C1` [Compound 322, ((((6-(((5S,8S, 10aR)-3-acetyl-8-(methyl (phenyl)carbamoyl)-6-oxodecahydro-pyrrolo[1,2-a][1,5]diazocin-5-yl)carbamoyl)naphthalen-2-yl)difluoro-methyl)phos-phoryl)bis(oxy)) bis(methylene) bis(2,2-dimethylpro-panoate)], for which the IC50 in experiment [1] and in experiment [2] was above 3 µM each time.

Regarding `CC(=O)N1CC[C@H]2CC[C@@H](C(=O)Nc3ccc(-c4ccccc4)cc3)N2C(=O)[C@@H](NC(=O)/C=C/c2ccc(C(F)(F)P(=O)(OCOC(=O)C(C)(C)C)OCOC(=O)C(C)(C)C)cc2)C1` [Compound 324, ((((4-((E)-3-(((5S,8S, 10aR)-8-([1,1′-biphenyl]-4-ylcarbamoyl)-3-acetyl-6-oxodecahydro-pyrrolo[1,2-a][1,5]diazocin-5-yl)amino)-3-oxoprop-1-en-1-yl)phenyl)difluoro-methyl)phosphoryl)bis(oxy))bis (methylene) bis(2,2-dimethylpro-panoate)], the IC50 in experiment [1] and in experiment [2] was above 3 µM in each case.

Turning to `CC(=O)N1CC[C@H]2CC[C@@H](C(=O)Nc3ccc(-c4ccccc4)cc3)N2C(=O)[C@@H](NC(=O)/C=C/c2ccc(C(F)(F)P(=O)(OCCSC(=O)CC(C)C)OCCSC(=O)CC(C)C)cc2)C1` [Compound 325, S,S′-(((((4-((E)-3-(((5S,8S, 10aR)-8-([1,1′-biphenyl]-4-ylcarbamoyl)-3-acetyl-6-oxodecahydro-pyrrolo[1,2-a][1,5]diazocin-5-yl)amino)-3-oxoprop-1-en-1-yl)phenyl)difluoro-methyl)phosphoryl)bis(oxy))bis (ethane-2,1-diyl)) bis(3-methylbutane-thioate)], the IC50 in experiment [1] and in experiment [2] was above 3 µM each time.

For the compound `CC(=O)N1CC[C@H]2CC[C@@H](C(=O)N(C)c3ccccc3)N2C(=O)[C@@H](NC(=O)c2cc3cc(C(F)(F)P(=O)(N[C@H](C)C(=O)OC(C)C)Oc4ccccc4)ccc3s2)C1` (stereo partly drawn) [Compound 326, isopropyl (((2-(((5S,8S, 10aR)-3-acetyl-8-(methyl (phenyl)carbamoyl)-6-oxodecahydro-pyrrolo[1,2-a][1,5]diazocin-5-yl)carbamoyl)benzo[b]thiophen-5-yl)difluoro-methyl) (phenoxy)phosphoryl)-D-alaninate], the IC50 in experiment [1] and in experiment [2] was above 3 µM in each case.

For `CC(=O)N1CC[C@H]2CC[C@@H](C(=O)N(C)c3ccc(OCCN(C)C)cc3)N2C(=O)[C@@H](NC(=O)c2cc3cc(C(F)(F)P(=O)(OCOC(=O)C(C)(C)C)OCOC(=O)C(C)(C)C)ccc3s2)C1` [Compound 327, ((((2-(((5S,8S, 10aR)-3-acetyl-8-((4-(2-(dimethyl-amino)ethoxy)phenyl) (methyl)carbamoyl)-6-oxodecahydro-pyrrolo[1,2-a][1,5]diazocin-5-yl)carbamoyl)benzo[b]thiophen-5-yl)difluoro-methyl)phos-phoryl)bis(oxy)) bis(methylene) bis(2,2-dimethylpro-panoate)], the half-maximal inhibitory concentration (IC50) in experiment [1] and in experiment [2] was above 3 µM in each case.

Consider `CNC(=O)[C@@H]1CC[C@@H]2CCN(C(=O)c3n[nH]c4ccc(C)cc34)C[C@H](NC(=O)c3ccc4ccc(C(F)(F)P(=O)(OCOC(=O)OC(C)C)OCOC(=O)OC(C)C)cc4c3)C(=O)N21` [Compound 328, (((difluoro(7-(((5S,8S,10aR)-3-(5-methyl-1H-indazole-3-carbonyl)-8-(methylcarbamoyl)-6-oxodecahydro-pyrrolo[1,2-a][1,5]diazocin-5-yl)carbamoyl)naphthalen-2-yl)methyl)phosphoryl)bis(oxy))bis(methylene) diisopropylbis(carbonate)], for which the IC50 was 0.1 to 1 µM in experiment [1] and above 3 µM in experiment [2].

`CNC(=O)[C@@H]1CC[C@@H]2CCN(C(=O)c3n[nH]c4ccc(C)cc34)C[C@H](NC(=O)c3ccc4ccc(C(F)(F)P(=O)(OCCSC(=O)CC(C)C)OCCSC(=O)CC(C)C)cc4c3)C(=O)N21` [Compound 329, S,S′-((((difluoro(7-(((5S,8S,10aR)-3-(5-methyl-1H-indazole-3-carbonyl)-8-(methylcarbamoyl)-6-oxodecahydropyrrolo[1,2-a][1,5]diazocin-5-yl)carbamoyl)naphthalen-2-yl)methyl)phosphoryl)bis(oxy))bis(ethane-2,1-diyl)) bis(3-methylbutanethioate)]: the IC50 in experiment [1] is at most 0.1 µM; in experiment [2], 1 to 3 µM.

`Cc1ccc2[nH]nc(C(=O)N3CC[C@H]4CC[C@@H](C(=O)N(C)C)N4C(=O)[C@@H](NC(=O)c4ccc5ccc(C(F)(F)P(=O)(OCCSC(=O)CC(C)C)OCCSC(=O)CC(C)C)cc5c4)C3)c2c1` [Compound 331, S,S′-(((((7-(((5S,8S,10aR)-8-(dimethylcarbamoyl)-3-(5-methyl-1H-indazole-3-carbonyl)-6-oxodecahydropyrrolo[1,2-a][1,5]diazocin-5-yl)carbamoyl)naphthalen-2-yl)difluoromethyl)phosphoryl)bis(oxy))bis(ethane-2,1-diyl))bis(3-methylbutanethioate)]: the figures for the IC50 in experiment [1] and in experiment [2] were at most 0.1 µM and above 3 µM, respectively.
